Results reported in the supplement of paper PMC12137928.
Counter-ions that a name gives are not always drawn.

Tested on: HCT116
Details: 72 h
Method in brief: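 After seeding at 250 cells per well in 1536-well plates, HCT116 cells were given 5 h to attach. CellTiter-Glo luminescence, scaled to 0% for vehicle and -100% for positive control, was pattern-corrected. Fitting with a four-parameter Hill model produced IC50 and maximal efficacy.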

Row | IC50 cell viability (ICRF193 0 nM) | IC50 cell viability (ICRF193 200 nM) | Structure (SMILES)
1 | > 45.8 µM | > 45.8 µM | CC[C@H]1[C@@H](O)[C@@H]2[C@H](CC[C@]3(C)[C@@H]([C@H](C)CCC(=O)O)CC[C@@H]23)[C@@]2(C)CC[C@@H](O)C[C@@H]12 [INT-747 (Obeticholic acid)]
2 | > 45.8 µM | > 45.8 µM | CN(CC(O)CO)C(=O)c1c(I)c(NC(=O)C(CO)CO)c(I)c(C(=O)N(C)CC(O)CO)c1I (stereo not given) [IOBITRIDOL]
3 | > 45.8 µM | > 45.8 µM | CC(C)CCCC(C)NC(C)C (stereo not given) [IPROHEPTINE]
4 | > 45.8 µM | > 45.8 µM | CNCC(=O)OCc1cccnc1N(C)C(=O)OC(C)[n+]1cnn(C[C@](O)(c2cc(F)ccc2F)[C@@H](C)c2nc(-c3ccc(C#N)cc3)cs2)c1 (stereo not given in full) [ISAVUCONAZONIUM SULFATE]
5 | > 45.8 µM | > 45.8 µM | CCC(NC(C)C)C(O)c1ccc(O)c(O)c1 (stereo not given) [ISOETHARINE MESYLATE]
6 | > 45.8 µM | > 45.8 µM | Cc1c(F)cc2c(=O)c(C(=O)O)cn3c2c1CCC3C (stereo not given) [Ibafloxacine]
7 | > 45.8 µM | > 45.8 µM | CCCCCN(C)CCC(O)(P(=O)(O)O)P(=O)(O)O [Ibandronate sodium hydrate]
8 | > 45.8 µM | > 45.8 µM | CC(C)C(=O)c1c(C(C)C)nn2ccccc12 [Ibudilast]
9 | > 45.8 µM | > 45.8 µM | CC(C)Cc1ccc(CC(=O)O)cc1 [Ibufenac]
10 | > 45.8 µM | > 45.8 µM | CC(C)Cc1ccc(C(C)C(=O)O)cc1 (stereo not given) [Ibuprofen lysine]
11 | > 45.8 µM | > 45.8 µM | CC(C)Cc1ccc(C(C)C(=O)OCc2ccccn2)cc1 (stereo not given) [Ibuprofen piconol]
12 | > 45.8 µM | > 45.8 µM | CCCCCCCN(CC)CCCC(O)c1ccc(NS(C)(=O)=O)cc1 (stereo not given) [Ibutilide fumarate]
13 | > 45.8 µM | > 45.8 µM | N=C(N)NCCC[C@@H](N)C(=O)N[C@@H](CCCNC(=N)N)C(=O)N1CCC[C@H]1C(=O)N1C[C@H](O)C[C@H]1C(=O)NCC(=O)N[C@@H](Cc1cccs1)C(=O)N[C@@H](CO)C(=O)N1Cc2ccccc2C[C@@H]1C(=O)N1[C@H](C(=O)N[C@@H](CCCNC(=N)N)C(=O)O)C[C@@H]2CCCC[C@@H]21 [Icatibant]
14 | > 45.8 µM | > 45.8 µM | O=c1[nH]c(=O)n([C@H]2C[C@H](O)[C@@H](CO)O2)cc1I [Idoxuridine]
15 | > 45.8 µM | > 45.8 µM | CC(C(O)c1ccc(O)cc1)N1CCC(Cc2ccccc2)CC1 (stereo not given) [Ifenprodil]
16 | > 45.8 µM | > 45.8 µM | CS(=O)(=O)Nc1cc2occ(NC=O)c(=O)c2cc1Oc1ccccc1 [Iguratimod]
17 | > 45.8 µM | > 45.8 µM | CC#CCC(C)[C@H](O)/C=C/[C@@H]1[C@H]2C/C(=C/CCCC(=O)O)C[C@H]2C[C@H]1O (stereo not given in full) [Iloprost]
18 | > 45.8 µM | > 45.8 µM | Cc1ccc(NC(=O)c2ccc(CN3CCN(C)CC3)cc2)cc1Nc1nccc(-c2cccnc2)n1 [Imatinib]
19 | > 45.8 µM | > 45.8 µM | Cc1nccn1CCC(C(N)=O)(c1ccccc1)c1ccccc1 [Imidafenacin]
20 | > 45.8 µM | > 45.8 µM | CCOC(=O)[C@H](CCc1ccccc1)N[C@@H](C)C(=O)N1C(=O)N(C)C[C@H]1C(=O)O [Imidapril hydrochloride]
21 | > 45.8 µM | > 45.8 µM | O=C(Nc1cccc(C2=NCCN2)c1)Nc1cccc(C2=NCCN2)c1 [Imidocarb dipropionate]

Row | IC50 cell viability (ICRF193 0 nM) | IC50 cell viability (ICRF193 200 nM) | Structure (SMILES)
22 | > 45.8 µM | > 45.8 µM | C[C@@H](O)[C@H]1C(=O)N2C(C(=O)O)=C(SCCNC=N)C[C@H]12 [Imipenem]
23 | > 45.8 µM | > 45.8 µM | CC(C)Cn1cnc2c(N)nc3ccccc3c21 [Imiquimod]
24 | > 45.8 µM | > 45.8 µM | CS(=O)(=O)OCCCNCCCOS(C)(=O)=O [Improsulfan tosylate]
25 | > 45.8 µM | > 45.8 µM | CC1Cc2ccccc2N1NC(=O)c1ccc(Cl)c(S(N)(=O)=O)c1 (stereo not given) [Indapamide]
26 | > 45.8 µM | > 45.8 µM | CC(C)NCCCC1(C(N)=O)c2ccccc2-c2ccccc21 [Indecainide]
27 | > 45.8 µM | > 45.8 µM | O=C1/C(=C2\Nc3ccc(S(=O)(=O)O)cc3C2=O)Nc2ccc(S(=O)(=O)O)cc21 [Indigo carmine]
28 | > 45.8 µM | > 45.8 µM | O=C1/C(=C2\Nc3ccccc3C2=O)Nc2ccccc21 [Indigo]
29 | > 45.8 µM | > 45.8 µM | CC(C)(C)NC(=O)[C@@H]1CN(Cc2cccnc2)CCN1C[C@@H](O)C[C@@H](Cc1ccccc1)C(=O)N[C@H]1c2ccccc2C[C@H]1O [Indinavir sulfate]
30 | > 45.8 µM | > 45.8 µM | c1ccc2[nH]ccc2c1 [Indole]
31 | > 45.8 µM | > 45.8 µM | COc1ccc2c(c1)c(CC(=O)OC/C=C(\C)CC/C=C(\C)CCC=C(C)C)c(C)n2C(=O)c1ccc(Cl)cc1 [Indomethacin farnesil]
32 | > 45.8 µM | > 45.8 µM | COc1ccc2c(c1)c(CC(=O)O)c(C)n2C(=O)c1ccc(Cl)cc1 [Indomethacin]
33 | > 45.8 µM | > 45.8 µM | O=C(NC1CCN(CCc2c[nH]c3ccccc23)CC1)c1ccccc1 [Indoramin hydrochloride]
34 | > 45.8 µM | > 45.8 µM | Nc1c(I)cc(I)c(C(=O)N(CCC(=O)O)c2ccccc2)c1I [Iobenzamic acid]
35 | > 45.8 µM | > 45.8 µM | CNC(=O)c1c(I)c(NC(=O)CCCCC(=O)Nc2c(I)c(C(=O)O)c(I)c(C(=O)NC)c2I)c(I)c(C(=O)O)c1I [Iocarmic acid]
36 | > 45.8 µM | > 45.8 µM | CC(=O)N(CC(C)C(=O)O)c1c(I)cc(I)c(N)c1I (stereo not given) [Iocetamic acid]
37 | > 45.8 µM | > 45.8 µM | CC(=O)NCc1c(I)c(NC(C)=O)c(I)c(C(=O)O)c1I [Iodamide]
38 | > 45.8 µM | > 45.8 µM | O=C(CCCCC(=O)Nc1c(I)cc(I)c(C(=O)O)c1I)Nc1c(I)cc(I)c(C(=O)O)c1I [Iodipamide]
39 | > 45.8 µM | > 45.8 µM | CC(=O)N(CC(O)CN(C(C)=O)c1c(I)c(C(=O)NCC(O)CO)c(I)c(C(=O)NCC(O)CO)c1I)c1c(I)c(C(=O)NCC(O)CO)c(I)c(C(=O)NCC(O)CO)c1I (stereo not given) [Iodixanol]
40 | > 45.8 µM | > 45.8 µM | Cc1c(I)c(=O)n(-c2ccccc2)n1C [Iodoantipyrine]
41 | > 45.8 µM | > 45.8 µM | O=C(CCOCCOCCOCCOCCC(=O)Nc1c(I)cc(I)c(C(=O)O)c1I)Nc1c(I)cc(I)c(C(=O)O)c1I [Iodoxamic Acid]

Row | Structure (SMILES) | IC50 cell viability (ICRF193 0 nM) | IC50 cell viability (ICRF193 200 nM)
42 | O=P1(NCCCl)OCCCN1CCCl (stereo not given) [Ifomide] | > 45.8 µM | > 45.8 µM
43 | O=[N+]([O-])/N=C1\NCCN1Cc1ccc(Cl)nc1 [Imidacloprid] | > 45.8 µM | > 45.8 µM
44 | O=C(NCNC(=O)NC1C(=O)NC(=O)N1CO)NC1C(=O)NC(=O)N1CO (stereo not given) [Imidazolidinyl urea] | > 45.8 µM | > 45.8 µM
45 | CC(C)NC(C)Cc1ccc(I)cc1 (stereo not given) [Iofetamine hydrochloride] | > 45.8 µM | > 45.8 µM
